Test results from patent publication US12077503B2, “Substituted cyclic amides and their use as herbicides” (FMC CORPORATION, priority 2015, dated 2024).

Columns and labels:
Assay type in all cases: in vivo
[1] = tested on: redroot pigweed (Amaranthus retroflexus); experiment: Test G Pre-Emergence Protocol; settings: Amaranthus retroflexus, pre-emergence, 312 h, evaluated after 13 days; for pest or weed control at 15.625 g/ha: 15.625 g ai/ha; for pest or weed control at 15.625 g/ha / pest or weed control at 250 g/ha: read-out: Pigweed, Redroot damage rating (100=total damage to plant; 0=no damage to plant); for pest or weed control at 62.5 g/ha: 62.5 g ai/ha, 100=total damage to plant, 0=no damage to plant, read-out: Pigweed, Redroot damage rating; for pest or weed control at 250 g/ha: 250 g ai/ha
Summary of the method: (§1)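 Seeds were sown in standard soil and kept one day in a glasshouse (24/16° C day/night, 14 h light, 65% humidity), then sprayed with compound in acetone/water (50:50) containing 0.5% Tween 20 at 15.625, 62.5 or 250 g/ha. Damage was scored after 13 days (0 = none, 100 = total).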

[2] = tested on: velvetleaf (Abutilon theophrasti); experiment: Test G Pre-Emergence Protocol; settings: Abutilon theophrasti, pre-emergence, 312 h, evaluated after 13 days; for pest or weed control at 15.625 g/ha: 15.625 g ai/ha; for pest or weed control at 15.625 g/ha / pest or weed control at 250 g/ha: read-out: Velvetleaf damage rating (100=total damage to plant; 0=no damage to plant); for pest or weed control at 62.5 g/ha: 62.5 g ai/ha, 100=total damage to plant, 0=no damage to plant, read-out: Velvetleaf damage rating; for pest or weed control at 250 g/ha: 250 g ai/ha
Summary of the method: as §1

[3] = tested on: barnyardgrass (Echinochloa crus-galli); experiment: Test G Pre-Emergence Protocol; settings: Echinochloa crus-galli, pre-emergence, 312 h, evaluated after 13 days; for pest or weed control at 15.625 g/ha: 15.625 g ai/ha; for pest or weed control at 15.625 g/ha / pest or weed control at 250 g/ha: read-out: Barnyardgrass damage rating (100=total damage to plant; 0=no damage to plant); for pest or weed control at 62.5 g/ha: 62.5 g ai/ha, 100=total damage to plant, 0=no damage to plant, read-out: Barnyardgrass damage rating; for pest or weed control at 250 g/ha: 250 g ai/ha
Summary of the method: as §1

[4] = tested on: giant foxtail (Setaria faberi); experiment: Test G Pre-Emergence Protocol; settings: Setaria faberi, pre-emergence, 312 h, evaluated after 13 days; for pest or weed control at 15.625 g/ha: 15.625 g ai/ha; for pest or weed control at 15.625 g/ha / pest or weed control at 250 g/ha: read-out: Foxtail, Giant damage rating (100=total damage to plant; 0=no damage to plant); for pest or weed control at 62.5 g/ha: 62.5 g ai/ha, 100=total damage to plant, 0=no damage to plant, read-out: Foxtail, Giant damage rating; for pest or weed control at 250 g/ha: 250 g ai/ha
Summary of the method: as §1

corn (Zea mays) [5] = experiment: Test G Pre-Emergence Protocol; settings: Zea mays, pre-emergence, 312 h, evaluated after 13 days; for plant injury at 15.625 g/ha: 15.625 g ai/ha; for plant injury at 15.625 g/ha / plant injury at 250 g/ha: read-out: Corn damage rating (100=total damage to plant; 0=no damage to plant); for plant injury at 62.5 g/ha: 62.5 g ai/ha, 100=total damage to plant, 0=no damage to plant, read-out: Corn damage rating; for plant injury at 250 g/ha: 250 g ai/ha
Summary of the method: as §1

[6] = tested on: ivy-leaved morning glory (Ipomoea hederacea); experiment: Test G Pre-Emergence Protocol; settings: Ipomoea, pre-emergence, 312 h, evaluated after 13 days; for pest or weed control at 15.625 g/ha: 15.625 g ai/ha; for pest or weed control at 15.625 g/ha / pest or weed control at 250 g/ha: read-out: Morningglory, Ivy-leaved damage rating (100=total damage to plant; 0=no damage to plant); for pest or weed control at 62.5 g/ha: 62.5 g ai/ha, 100=total damage to plant, 0=no damage to plant, read-out: Morningglory, Ivy-leaved damage rating; for pest or weed control at 250 g/ha: 250 g ai/ha
Summary of the method: as §1

[7] = tested on: redroot pigweed (Amaranthus retroflexus); experiment: Test G Post-Emergence Protocol; settings: Amaranthus retroflexus, post-emergence, 312 h, read-out: Pigweed, Redroot damage rating; for pest or weed control at 15.625 g/ha: 15.625 g ai/ha, evaluated after 13 days (100=total damage to plant; 0=no damage to plant); for pest or weed control at 62.5 g/ha: 62.5 g ai/ha; for pest or weed control at 62.5 g/ha / pest or weed control at 250 g/ha: evaluated after 13 days, 100=total damage to plant, 0=no damage to plant; for pest or weed control at 250 g/ha: 250 g ai/ha
Summary of the method: (§2)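 Seedlings grown 8 days in soil in a glasshouse (24/16 °C day/night, 14 h light, 65% humidity) were sprayed post-emergence with compound in acetone/water 50:50 plus 0.5% Tween 20 at 15.625, 62.5 or 250 g/ha. Damage was scored after 13 days on a 0–100 scale (100 = total damage).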

[8] = tested on: velvetleaf (Abutilon theophrasti); experiment: Test G Post-Emergence Protocol; settings: Abutilon theophrasti, post-emergence, 312 h, read-out: Velvetleaf damage rating; for pest or weed control at 15.625 g/ha: 15.625 g ai/ha, evaluated after 13 days (100=total damage to plant; 0=no damage to plant); for pest or weed control at 62.5 g/ha: 62.5 g ai/ha; for pest or weed control at 62.5 g/ha / pest or weed control at 250 g/ha: evaluated after 13 days, 100=total damage to plant, 0=no damage to plant; for pest or weed control at 250 g/ha: 250 g ai/ha
Summary of the method: as §2

[9] = tested on: barnyardgrass (Echinochloa crus-galli); experiment: Test G Post-Emergence Protocol; settings: Echinochloa crus-galli, post-emergence, 312 h, read-out: Barnyardgrass damage rating; for pest or weed control at 15.625 g/ha: 15.625 g ai/ha, evaluated after 13 days (100=total damage to plant; 0=no damage to plant); for pest or weed control at 62.5 g/ha: 62.5 g ai/ha; for pest or weed control at 62.5 g/ha / pest or weed control at 250 g/ha: evaluated after 13 days, 100=total damage to plant, 0=no damage to plant; for pest or weed control at 250 g/ha: 250 g ai/ha
Summary of the method: as §2

[10] = tested on: giant foxtail (Setaria faberi); experiment: Test G Post-Emergence Protocol; settings: Setaria faberi, post-emergence, 312 h, read-out: Foxtail, Giant damage rating; for pest or weed control at 15.625 g/ha: 15.625 g ai/ha, evaluated after 13 days (100=total damage to plant; 0=no damage to plant); for pest or weed control at 62.5 g/ha: 62.5 g ai/ha
Summary of the method: as §2

corn (Zea mays) [11] = experiment: Test G Post-Emergence Protocol; settings: Zea mays, post-emergence, 312 h, read-out: Corn damage rating; for plant injury at 15.625 g/ha: 15.625 g ai/ha, evaluated after 13 days (100=total damage to plant; 0=no damage to plant); for plant injury at 62.5 g/ha: 62.5 g ai/ha; for plant injury at 62.5 g/ha / plant injury at 250 g/ha: evaluated after 13 days, 100=total damage to plant, 0=no damage to plant; for plant injury at 250 g/ha: 250 g ai/ha
Summary of the method: as §2

[12] = tested on: ivy-leaved morning glory (Ipomoea hederacea); experiment: Test G Post-Emergence Protocol; settings: Ipomoea, post-emergence, 312 h, read-out: Morningglory, Ivy-leaved damage rating; for pest or weed control at 15.625 g/ha: 15.625 g ai/ha, evaluated after 13 days (100=total damage to plant; 0=no damage to plant); for pest or weed control at 62.5 g/ha: 62.5 g ai/ha; for pest or weed control at 62.5 g/ha / pest or weed control at 250 g/ha: evaluated after 13 days, 100=total damage to plant, 0=no damage to plant; for pest or weed control at 250 g/ha: 250 g ai/ha
Summary of the method: as §2

[13] = evaluated after 13 days, 100=total damage to plant, 0=no damage to plant

SMILES | pest or weed control at 15.625 g/ha [1] | pest or weed control at 62.5 g/ha [1] | pest or weed control at 250 g/ha [1] | pest or weed control at 15.625 g/ha [2] | pest or weed control at 62.5 g/ha [2] | pest or weed control at 250 g/ha [2] | pest or weed control at 15.625 g/ha [3] | pest or weed control at 62.5 g/ha [3] | pest or weed control at 250 g/ha [3] | pest or weed control at 15.625 g/ha [4] | pest or weed control at 62.5 g/ha [4] | pest or weed control at 250 g/ha [4] | plant injury at 15.625 g/ha (corn (Zea mays) [5]) | plant injury at 62.5 g/ha (corn (Zea mays) [5]) | plant injury at 250 g/ha (corn (Zea mays) [5]) | pest or weed control at 15.625 g/ha [6] | pest or weed control at 62.5 g/ha [6] | pest or weed control at 250 g/ha [6] | pest or weed control at 15.625 g/ha [7] | pest or weed control at 62.5 g/ha [7] | other results
CN1C[C@H](c2ccc(C(F)F)cc2)[C@@H](C(=O)Nc2cnccc2C(F)(F)F)C1=O (racemic) [Compound 1743] | 20% | 60% | 80% | 10% | 50% | 80% | 30% | 40% | 80% | 30% | 90% | 90% | 30% | 20% | 80% | 0% | 60% | 70% | 0% | 0% | pest or weed control at 250 g/ha [7]: 50%; pest or weed control at 15.625 g/ha [8]: 0%; pest or weed control at 62.5 g/ha [8]: 0%; pest or weed control at 250 g/ha [8]: 50%; pest or weed control at 15.625 g/ha [9]: 0%; pest or weed control at 62.5 g/ha [9]: 0%; pest or weed control at 250 g/ha [9]: 80%; pest or weed control at 15.625 g/ha [10]: 20%; pest or weed control at 62.5 g/ha [10, 13]: 70%; plant injury at 15.625 g/ha (corn (Zea mays) [11]): 0%; plant injury at 62.5 g/ha (corn (Zea mays) [11]): 0%; plant injury at 250 g/ha (corn (Zea mays) [11]): 60%; pest or weed control at 15.625 g/ha [12]: 0%; pest or weed control at 62.5 g/ha [12]: 0%; pest or weed control at 250 g/ha [12]: 30%
CN1C[C@H](c2cccc(C(F)(F)F)c2)[C@@H](C(=O)Nc2cnccc2S(C)(=O)=O)C1=O (racemic) [Compound 1747] | 0% | 10% | 10% | 0% | 0% | 0% | 0% | 0% | 80% | 0% | 10% | 70% | 0% | 0% | 0% | 0% | 0% | 0% | 10% | 20% | pest or weed control at 250 g/ha [7]: 20%; pest or weed control at 15.625 g/ha [8]: 0%; pest or weed control at 62.5 g/ha [8]: 0%; pest or weed control at 250 g/ha [8]: 10%; pest or weed control at 15.625 g/ha [9]: 0%; pest or weed control at 62.5 g/ha [9]: 60%; pest or weed control at 250 g/ha [9]: 80%; pest or weed control at 15.625 g/ha [10]: 10%; pest or weed control at 62.5 g/ha [10, 13]: 60%; pest or weed control at 250 g/ha ([10]; 250 g ai/ha, evaluated after 13 days, 100=total damage to plant, 0=no damage to plant): 80%; plant injury at 15.625 g/ha (corn (Zea mays) [11]): 0%; plant injury at 62.5 g/ha (corn (Zea mays) [11]): 0%; plant injury at 250 g/ha (corn (Zea mays) [11]): 30%; pest or weed control at 15.625 g/ha [12]: 0%; pest or weed control at 62.5 g/ha [12]: 20%; pest or weed control at 250 g/ha [12]: 50%
COc1ncc([C@@H]2CN(C)C(=O)[C@H]2C(=O)Nc2cccc(F)c2F)cc1Cl (racemic) [Compound 1755] | 0% | 40% | 70% | 0% | 20% | 70% | 70% | 80% | 90% | 80% | 90% | 90% | 20% | 60% | 80% | 0% | 20% | 80% | 10% | 20% | pest or weed control at 250 g/ha [7]: 30%; pest or weed control at 15.625 g/ha [8]: 10%; pest or weed control at 62.5 g/ha [8]: 30%; pest or weed control at 250 g/ha [8]: 60%; pest or weed control at 15.625 g/ha [9]: 60%; pest or weed control at 62.5 g/ha [9]: 70%; pest or weed control at 250 g/ha [9]: 80%; pest or weed control at 15.625 g/ha [10]: 70%; pest or weed control at 62.5 g/ha [10, 13]: 80%; plant injury at 15.625 g/ha (corn (Zea mays) [11]): 10%; plant injury at 62.5 g/ha (corn (Zea mays) [11]): 80%; plant injury at 250 g/ha (corn (Zea mays) [11]): 80%; pest or weed control at 15.625 g/ha [12]: 60%; pest or weed control at 62.5 g/ha [12]: 70%; pest or weed control at 250 g/ha [12]: 70%
